Reference: US20040024055A1, “Pharmaceutical composition containing the exract of saururus chinensis baill useful as an anticancer agent and a process for the preparation thereof” (priority 2000, published 2004)

Tests used:
[1] = Anticancer activity of sauristolactam separated from saururus; settings: separated from saururus and crystallized
[2] = tested on: cell line treated as in Experimental Example 1; assay: LDH analysis of remaining cell after NO detection; type: cell-based; settings: 1% Triton treatment
Excerpt: The remaining cell after NO detection was identified as dead by measuring existence rate and necrosis rate through MTT analysis and LDH analysis.

Compound	anticancer activity [1]	LDH Analysis (necrosis rate) [2] [%]
COc1c(O)cc2c3c(cc4ccccc4c13)N(C)C2=O [sauristolactam]	no anticancer activity was detected	–
Triton X-100	–	100
